Values quoted from earlier work as cited in US7303775B1, “Carbohydrate ruminant feed energy supplement and method” (Penn State Research Foundation, priority 2003, dated 2007).

Key:
glucagon = conditions: oral, same dose, humans
insulin = conditions: compared with sucrose or glucose
rat liver = conditions: compared with glucose

Compound	effect on glucagon (glucagon)	potency as insulin secretagogue (insulin)	rate of conversion to fat by rat liver (rat liver)
OC[C@H]1O[C@@](CO)(O[C@H]2O[C@H](CO)[C@@H](O)[C@H](O)[C@H]2O)[C@@H](O)[C@@H]1O [sucrose, reference compound]	decline	–	–
O=C(CO)[C@@H](O)[C@H](O)[C@H](O)CO [fructose]	did not	less potent	much higher rate
